# Biological target: T1, HCV1b NS5B polymerase delta 21 (Hepatitis C virus genotype 1b, UniProt P26663)
# T1 construct: purified HCV1b NS5B polymerase delta 21
# Test: RNA-Dependent RNA HCV NS5B (Polymerase) Assay and IC50 Determination
# Format: biochemical
# Procedure: RNA-Dependent RNA HCV NS5B (Polymerase) Assay and IC50 Determination
# In vitro RNA-dependent RNA polymerase activity was determined in a reaction mixture (50 μL) containing 50 mM Tris-HCl, pH 7.5, 5 mM MgCl2, 1 mM dithiothreitol, 0.5% Triton® X-100, 10 μM of UTP, 0.1-0.5 μCi of α-^32P UTP (Perkin Elmer Life Sciences), 1 μg of polyA:U16 (Midland Oligo), and 0.6 μg of purified HCV1b NS5B polymerase delta 21. Different concentrations of compounds were added to the reaction mixtures. The reaction was carried out at RT (23° C.) for 60 min and then stopped by the addition of 100 μL of 50 mM EDTA. The reaction mixtures were filtered through either a DE81 membrane or a positively charged nylon membrane, and the membranes were then extensively washed with 30 mM sodium citrate, pH 7.0 and 300 mM NaCl. The radiolabeled RNA products were quantitated using a Storm™ Phosphorlmager™ (GE Life Sciences). IC50 values were calculated using GraFit 6 and GraphPad Prism 5 from triplicate assays.
# T1 sequence (P26663 2420-2989): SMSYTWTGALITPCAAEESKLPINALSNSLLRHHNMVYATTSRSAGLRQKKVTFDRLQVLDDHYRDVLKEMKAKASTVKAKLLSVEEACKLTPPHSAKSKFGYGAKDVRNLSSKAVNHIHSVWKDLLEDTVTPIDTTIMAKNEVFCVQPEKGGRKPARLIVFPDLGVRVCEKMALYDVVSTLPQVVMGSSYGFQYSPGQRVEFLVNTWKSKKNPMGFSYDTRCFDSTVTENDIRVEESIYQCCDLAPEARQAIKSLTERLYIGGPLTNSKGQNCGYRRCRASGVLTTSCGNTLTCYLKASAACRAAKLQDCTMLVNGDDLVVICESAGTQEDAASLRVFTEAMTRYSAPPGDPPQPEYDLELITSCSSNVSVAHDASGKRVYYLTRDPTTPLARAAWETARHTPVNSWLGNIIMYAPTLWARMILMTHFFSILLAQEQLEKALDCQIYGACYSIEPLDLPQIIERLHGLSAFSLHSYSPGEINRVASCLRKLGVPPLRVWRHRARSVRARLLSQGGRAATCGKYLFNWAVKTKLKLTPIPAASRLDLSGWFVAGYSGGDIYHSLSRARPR
row,Structure (SMILES),IC50
1,"Cc1cc(C)n2nc(CCCN3CCC(c4cc(-c5ccccc5)sc4C(=O)O)=C(C4CCC(C)CC4)C3)nc2n1 (stereo not drawn) [Example 091, 3-[1-[3-(5,7-Dimethyl-[1,2,4]triazolo[1,5-a]pyrimidin-2-yl)-propyl]-5-(4-methyl-cyclohexyl)-1,2,3,6-tetrahydro-pyridin-4-yl]-5-phenyl-thiophene-2-carboxylic acid]",< 3 µM
2,"CCN1CCC(c2cc(-c3ccc(NC(=O)c4cn[nH]c4)cc3)sc2C(=O)O)=C(C2CCC(C)CC2)C1 (stereo not drawn) [Example 056, 3-[1-Ethyl-5-(4-methyl-cyclohexyl)-1,2,3,6-tetrahydro-pyridin-4-yl]-5-{4-[(1H-pyrazole-4-carbonyl)-amino]-phenyl}-thiophene-2-carboxylic acid]",3 to 10 µM
3,"Cc1ccnc2cc(-c3ccc(-c4cc(C5=C(C6CCC(C)CC6)CN(C)CC5)c(C(=O)O)s4)cc3)nn12 (stereo not drawn) [Example 162, 3-[1-Methyl-5-(4-methyl-cyclohexyl)-1,2,3,6-tetrahydro-pyridin-4-yl]-5-[4-(7-methyl-pyrazolo[1,5-a]pyrimidin-2-yl)-phenyl]-thiophene-2-carboxylic acid]",< 3 µM
4,"CC1CCC(C2=C(c3cc(I)sc3C(=O)O)CNCC2)CC1 (stereo not drawn) [Example 171, 5-Iodo-3-[4-(4-methyl-cyclohexyl)-1,2,5,6-tetrahydro-pyridin-3-yl]-thiophene-2-carboxylic acid]",> 10 µM
5,"CC1CCC(C2=C(c3cc(I)sc3C(=O)O)CCN(C)C2)CC1 (stereo not drawn) [Example 002, 5-Iodo-3-[1-methyl-5-(4-methyl-cyclohexyl)-1,2,3,6-tetrahydro-pyridin-4-yl]-thiophene-2-carboxylic acid]",> 10 µM
6,"CC1CCC(C2=C(c3cc(-c4ccc(N(C)C(=O)c5cscn5)cc4)sc3C(=O)O)CCN(C)C2)CC1 (stereo not drawn) [Example 067, 3-[1-Methyl-5-(4-methyl-cyclohexyl)-1,2,3,6-tetrahydro-pyridin-4-yl]-5-{4-[methyl-(thiazole-4-carbonyl)-amino]-phenyl}-thiophene-2-carboxylic acid]",3 to 10 µM
7,"CC1CCC(C2=C(c3cc(-c4ccc(N)cc4)sc3C(=O)O)CCN(C)C2)CC1 (stereo not drawn) [Example 004, 5-(4-Amino-phenyl)-3-[1-methyl-5-(4-methyl-cyclohexyl)-1,2,3,6-tetrahydro-pyridin-4-yl]-thiophene-2-carboxylic acid]",< 3 µM
8,"CC1CCC(C2=C(c3cc(-c4ccc(NC(=O)OC(C)(C)C)cc4)sc3C(=O)O)CCN(C)C2)CC1 (stereo not drawn) [Example 012, 5-(4-tert-Butoxycarbonylamino-phenyl)-3-[1-methyl-5-(4-methyl-cyclohexyl)-1,2,3,6-tetrahydro-pyridin-4-yl]-thiophene-2-carboxylic acid]",> 10 µM
9,"CC1CCC(C2=C(c3cc(C#Cc4ccccc4)sc3C(=O)O)CCN(C)C2)CC1 (stereo not drawn) [Example 010, 3-[1-Methyl-5-(4-methyl-cyclohexyl)-1,2,3,6-tetrahydro-pyridin-4-yl]-5-phenylethynyl-thiophene-2-carboxylic acid]",> 10 µM
10,"CC1CCC(C2=C(c3cc(C#CC4CCCC4)sc3C(=O)O)CN(C)CC2)CC1 (stereo not drawn) [Example 176, 5-Cyclopentylethynyl-3-[1-methyl-4-(4-methyl-cyclohexyl)-1,2,5,6-tetrahydro-pyridin-3-yl]-thiophene-2-carboxylic acid]",< 3 µM
11,"CC1CC=C(C2=C(c3cc(-c4ccc(-c5cc6ncccn6n5)cc4)sc3C(=O)O)CCN(C)C2)CC1 (stereo not drawn) [Example 070, 3-[1-Methyl-5-(4-methyl-cyclohex-1-enyl)-1,2,3,6-tetrahydro-pyridin-4-yl]-5-(4-pyrazolo[1,5-a]pyrimidin-2-yl-phenyl)-thiophene-2-carboxylic acid]",< 3 µM
12,"CC1CCC(C2=C(c3cc(-c4ccc(-c5nc6cccnc6n5C)cc4)sc3C(=O)O)CCN(C)C2)CC1 (stereo not drawn) [Example 139, 5-[4-(3-Methyl-3H-imidazo[4,5-b]pyridin-2-yl)-phenyl]-3-[1-methyl-5-(4-methyl-cyclohexyl)-1,2,3,6-tetrahydro-pyridin-4-yl]-thiophene-2-carboxylic acid]",> 10 µM
13,"CC1CCC(C2=C(c3cc(-c4ccc(-c5cn6ncccc6n5)cc4)sc3C(=O)O)CCN(C)C2)CC1 (stereo not drawn) [Example 164, 5-(4-Imidazo[1,2-b]pyridazin-2-yl-phenyl)-3-[1-methyl-5-(4-methyl-cyclohexyl)-1,2,3,6-tetrahydro-pyridin-4-yl]-thiophene-2-carboxylic acid]",3 to 10 µM
14,"CCN1CCC(c2cc(-c3ccc(NCc4cscn4)cc3)sc2C(=O)O)=C(C2CCC(C)CC2)C1 (stereo not drawn) [Example 061, 3-[1-Ethyl-5-(4-methyl-cyclohexyl)-1,2,3,6-tetrahydro-pyridin-4-yl]-5-{4-[(thiazol-4-ylmethyl)-amino]-phenyl}-thiophene-2-carboxylic acid]",> 10 µM
15,"CC(=O)N1CCC(c2cc(-c3ccccc3)sc2C(=O)O)=C(C2CCC(C)CC2)C1 (stereo not drawn) [Example 071, 3-[1-Acetyl-5-(4-methyl-cyclohexyl)-1,2,3,6-tetrahydro-pyridin-4-yl]-5-phenyl-thiophene-2-carboxylic acid]",< 3 µM
16,"CCN1CCC(c2cc(-c3cccc(NC(=O)c4cscn4)c3)sc2C(=O)O)=C(C2CCC(C)CC2)C1 (stereo not drawn) [Example 025, 3-[1-Ethyl-5-(4-methyl-cyclohexyl)-1,2,3,6-tetrahydro-pyridin-4-yl]-5-{3-[(thiazole-4-carbonyl)-amino]-phenyl}-thiophene-2-carboxylic acid]",> 10 µM
17,"CC1CCC(C2=C(c3cc(-c4ccccc4)sc3C(=O)O)CCN(C(=O)c3nn(C)c4ccccc34)C2)CC1 (stereo not drawn) [Example 099, 3-[5-(4-Methyl-cyclohexyl)-1-(1-methyl-1H-indazole-3-carbonyl)-1,2,3,6-tetrahydro-pyridin-4-yl]-5-phenyl-thiophene-2-carboxylic acid]",3 to 10 µM
18,"CC1CCC(C2=C(c3cc(-c4ccccc4)sc3C(=O)O)CCN(C(=O)c3cn(C)c4ccccc34)C2)CC1 (stereo not drawn) [Example 098, 3-[5-(4-Methyl-cyclohexyl)-1-(1-methyl-1H-indole-3-carbonyl)-1,2,3,6-tetrahydro-pyridin-4-yl]-5-phenyl-thiophene-2-carboxylic acid]",> 10 µM
19,"CCN1CCC(c2cc(-c3ccc(NC(=O)c4cscn4)cc3)sc2C(=O)O)=C(C2CCC(C)CC2)C1 (stereo not drawn) [Example 019, 3-[1-Ethyl-5-(4-methyl-cyclohexyl)-1,2,3,6-tetrahydro-pyridin-4-yl]-5-{4-[(thiazole-4-carbonyl)-amino]-phenyl}-thiophene-2-carboxylic acid]",< 3 µM
20,"CCN1CCC(c2cc(-c3ccc(C(=O)Nc4ccccn4)cc3)sc2C(=O)O)=C(C2CCC(C)CC2)C1 (stereo not drawn) [Example 062, 3-[1-Ethyl-5-(4-methyl-cyclohexyl)-1,2,3,6-tetrahydro-pyridin-4-yl]-5-[4-(pyridin-2-ylcarbamoyl)-phenyl]-thiophene-2-carboxylic acid]",< 3 µM
21,"CC1CCC(C2=C(c3cc(-c4ccc(NC(=O)c5cscn5)cc4)sc3C(=O)OCOC(=O)OC(C)C)CCN(C)C2)CC1 (stereo not drawn) [Example 106, 3-[1-Methyl-5-(4-methyl-cyclohexyl)-1,2,3,6-tetrahydro-pyridin-4-yl]-5-{4-[(thiazole-4-carbonyl)-amino]-phenyl}-thiophene-2-carboxylic acid isopropoxycarbonyloxymethyl ester]",> 10 µM
22,"CC1CCC(C2=C(c3cc(-c4ccccc4)sc3C(=O)O)CCN(Cc3c(Cl)cncc3Cl)C2)CC1 (stereo not drawn) [Example 146, 3-[1-(3,5-Dichloro-pyridin-4-ylmethyl)-5-(4-methyl-cyclohexyl)-1,2,3,6-tetrahydro-pyridin-4-yl]-5-phenyl-thiophene-2-carboxylic acid]",> 10 µM
23,"CC1CCC(C2=C(c3cc(-c4ccccc4)sc3C(=O)O)CCN(Cc3ccc4ccccc4n3)C2)CC1 (stereo not drawn) [Example 143, 3-[5-(4-Methyl-cyclohexyl)-1-quinolin-2-ylmethyl-1,2,3,6-tetrahydro-pyridin-4-yl]-5-phenyl-thiophene-2-carboxylic acid]",> 10 µM
24,"CCCC(C)C#Cc1cc(C2=C(C3CCC(C)CC3)CN(CC)CC2)c(C(=O)O)s1 (stereo not drawn) [Example 030, 3-[1-Ethyl-5-(4-methyl-cyclohexyl)-1,2,3,6-tetrahydro-pyridin-4-yl]-5-(3-methyl-hex-1-ynyl)-thiophene-2-carboxylic acid]",> 10 µM
25,"CC1CCC(C2=C(c3cc(-c4ccccc4)sc3C(=O)O)CCN(C(=O)c3ccccc3)C2)CC1 (stereo not drawn) [Example 072, 3-[1-Benzoyl-5-(4-methyl-cyclohexyl)-1,2,3,6-tetrahydro-pyridin-4-yl]-5-phenyl-thiophene-2-carboxylic acid]",> 10 µM
26,"CC1CCC(C2=C(c3cc(-c4ccccc4)sc3C(=O)O)CCN(CC(=O)O)C2)CC1 (stereo not drawn) [Example 082, 3-[1-Carboxymethyl-5-(4-methyl-cyclohexyl)-1,2,3,6-tetrahydro-pyridin-4-yl]-5-phenyl-thiophene-2-carboxylic acid]",3 to 10 µM
27,"CC1CCC(C2=C(c3cc(-c4ccc(NC(=O)c5cscn5)cc4)sc3C(=O)OCCN(C)C)CCN(C)C2)CC1 (stereo not drawn) [Example 103, 3-[1-Methyl-5-(4-methyl-cyclohexyl)-1,2,3,6-tetrahydro-pyridin-4-yl]-5-{4-[(thiazole-4-carbonyl)-amino]-phenyl}-thiophene-2-carboxylic acid 2-dimethylamino-ethyl ester]",< 3 µM
